Measurements from PubChem BioAssay AID226 (DTP/NCI, 2004).
Where “and” joins values, the source holds several entries; their conditions need not be identical. Identical values can stand only once. Toxic doses and inconclusive results are not listed.

Test system: B6C3F1 mice, intracerebral ependymoblastoma, median survival T/C
Experiment: NCI In Vivo Anticancer Drug Screen. Data for tumor model Ependymoblastoma (intracerebral) in B6C3F1 mice
Conditions: endpoint: median survival time, higher = longer survival
Procedure: The antitumor activity of compounds was measured in mice bearing transplantable tumors. Survival or tumor size were measured and the results are expressed as the measurement made in the treated group (T) divided by the measurement made in the vehicle treated control group (C). The tumor model used in this assay is Ependymoblastoma (intracerebral) in B6C3F1 mice

[1] = dose: 0.25 mg/kg/injection, schedule: Q01DX005 (ip), vehicle: Klucel (hydroxypropylcellulose) (HPC)
[2] = dose: 0.5 mg/kg/injection, schedule: Q01DX005 (ip), vehicle: Klucel (hydroxypropylcellulose) (HPC)
[3] = dose: 8.0 mg/kg/injection, schedule: Q01DX005 (ip), vehicle: Klucel (hydroxypropylcellulose) (HPC)
[4] = dose: 16.0 mg/kg/injection, schedule: Q01DX005 (ip), vehicle: Klucel (hydroxypropylcellulose) (HPC)
[5] = dose: 32.0 mg/kg/injection, schedule: Q01DX005 (ip), vehicle: Klucel (hydroxypropylcellulose) (HPC)
[6] = dose: 64.0 mg/kg/injection, schedule: Q01DX005 (ip), vehicle: Klucel (hydroxypropylcellulose) (HPC)
[7] = dose: 128.0 mg/kg/injection, schedule: Q01DX005 (ip), vehicle: Klucel (hydroxypropylcellulose) (HPC)
[8] = dose: 256.0 mg/kg/injection, schedule: Q01DX005 (ip), vehicle: Klucel (hydroxypropylcellulose) (HPC)
[9] = dose: 64.0 mg/kg/injection, schedule: Q01DX005 (ip), vehicle: saline with Tween-80
[10] = dose: 8.0 mg/kg/injection, schedule: Q01DX005 (ip), vehicle: saline with Tween-80
[11] = dose: 16.0 mg/kg/injection, schedule: Q01DX005 (ip), vehicle: saline with Tween-80
[12] = dose: 32.0 mg/kg/injection, schedule: Q01DX005 (ip), vehicle: saline with Tween-80
[13] = dose: 128.0 mg/kg/injection, schedule: Q01DX005 (ip), vehicle: saline with Tween-80
[14] = dose: 256.0 mg/kg/injection, schedule: Q01DX005 (ip), vehicle: saline with Tween-80
[15] = dose: 512.0 mg/kg/injection, schedule: Q01DX005 (ip), vehicle: saline with Tween-80
[16] = dose: 4.0 mg/kg/injection, schedule: Q01DX005 (ip), vehicle: saline with Tween-80

`O=NN(CCF)C(=O)NCCO` was tested, and the T/C (dose: 5.18 mg/kg/injection, schedule: Q01DX005 (ip), vehicle: Klucel (hydroxypropylcellulose) (HPC)) was 189 % of control, the T/C (dose: 8.64 mg/kg/injection, schedule: Q01DX005 (ip), vehicle: Klucel (hydroxypropylcellulose) (HPC)) was 357 % of control and the T/C (dose: 13.0 mg/kg/injection, schedule: Q01DX001 (ip), vehicle: saline) was 115 % of control. For the same molecule, the T/C (dose: 14.4 mg/kg/injection, schedule: Q01DX005 (ip), vehicle: Klucel (hydroxypropylcellulose) (HPC)) was 357 % of control, the T/C (dose: 21.6 mg/kg/injection, schedule: Q01DX001 (ip), vehicle: saline) was 181 % of control and the T/C (dose: 24.0 mg/kg/injection, schedule: Q01DX005 (ip), vehicle: Klucel (hydroxypropylcellulose) (HPC)) was 357 % of control. The T/C (dose: 36.0 mg/kg/injection, schedule: Q01DX001 (ip), vehicle: saline) was 363 % of control and the T/C (dose: 60.0 mg/kg/injection, schedule: Q01DX001 (ip), vehicle: saline) was 363 % of control.

For `CSCS(=O)C[C@H](CO)NC(=O)/C=C/c1c(C)[nH]c(=O)[nH]c1=O` (stereo partly drawn), the T/C (dose: 0.06 mg/kg/injection, schedule: Q01DX005 (ip), vehicle: Klucel (hydroxypropylcellulose) (HPC)) was 105 % of control, the T/C (dose: 0.12 mg/kg/injection, schedule: Q01DX001 (ip), vehicle: Klucel (hydroxypropylcellulose) (HPC)) was 102 % of control and 104 % of control and 107 % of control and the T/C (dose: 0.12 mg/kg/injection, schedule: Q01DX005 (ip), vehicle: Klucel (hydroxypropylcellulose) (HPC)) was 100 % of control. The T/C (dose: 0.25 mg/kg/injection, schedule: Q01DX001 (ip), vehicle: Klucel (hydroxypropylcellulose) (HPC)) was 101 % of control and 102 % of control and 112 % of control, the T/C [1] was 105 % of control and the T/C (dose: 0.5 mg/kg/injection, schedule: Q01DX001 (ip), vehicle: Klucel (hydroxypropylcellulose) (HPC)) was 97 % of control and 103 % of control and 109 % of control. The T/C [2] was 102 % of control and the T/C (dose: 1.0 mg/kg/injection, schedule: Q01DX001 (ip), vehicle: Klucel (hydroxypropylcellulose) (HPC)) was 96 % of control and 97 % of control and 102 % of control.

`CCCCCCC(=O)O[C@H]1CC[C@H]2[C@@H]3CCC4=CC(=O)CC[C@]4(C)[C@H]3CC[C@]12C` was tested, and the T/C [3] was 101 % of control and 110 % of control, the T/C [4] was 92 % of control and 100 % of control and the T/C [5] was 95 % of control and 110 % of control. The T/C [6] was 108 % of control and 89 % of control, the T/C [7] was 95 % of control and 96 % of control and the T/C [8] was 97 % of control.

In the case of `CCCCN(C)N=Nc1c(C(N)=O)n[nH]c1C`, the T/C [9] is reported as 166 % of control.

For `CCCCCC(=O)O[C@]1(C(C)=O)CC[C@H]2[C@@H]3CCC4=CC(=O)CC[C@]4(C)[C@H]3CC[C@@]21C`, the T/C [3] was 105 % of control, the T/C (dose: 8.0 mg/kg/injection, schedule: Q01DX005 (ip), vehicle: saline + alcohol) was 96 % of control and the T/C [10] was 95 % of control and 105 % of control. For the same molecule, the T/C [4] was 106 % of control, the T/C (dose: 16.0 mg/kg/injection, schedule: Q01DX005 (ip), vehicle: saline + alcohol) was 106 % of control and the T/C [11] was 115 % of control and 89 % of control. The T/C [5] was 87 % of control, the T/C (dose: 32.0 mg/kg/injection, schedule: Q01DX005 (ip), vehicle: saline + alcohol) was 102 % of control and the T/C [12] was 98 % of control and 117 % of control. For the same molecule, the T/C [6] was 101 % of control, the T/C (dose: 64.0 mg/kg/injection, schedule: Q01DX005 (ip), vehicle: saline + alcohol) was 104 % of control and the T/C [9] was 99 % of control and 105 % of control. For the same molecule, the T/C [7] was 86 % of control, the T/C (dose: 128.0 mg/kg/injection, schedule: Q01DX005 (ip), vehicle: saline + alcohol) was 102 % of control and the T/C [13] was 104 % of control and 107 % of control. For the same molecule, the T/C [8] was 95 % of control, the T/C (dose: 256.0 mg/kg/injection, schedule: Q01DX005 (ip), vehicle: saline + alcohol) was 102 % of control and the T/C [14] was 98 % of control and 107 % of control. For the same molecule, the T/C (dose: 512.0 mg/kg/injection, schedule: Q01DX005 (ip), vehicle: Klucel (hydroxypropylcellulose) (HPC)) was 95 % of control, the T/C (dose: 512.0 mg/kg/injection, schedule: Q01DX005 (ip), vehicle: saline + alcohol) was 113 % of control and the T/C [15] was 95 % of control and 105 % of control.

In the case of `C[C@@H](CN1CC(=O)NC(=O)C1)N1CC(=O)NC(=O)C1`, the T/C (dose: 4.0 mg/kg/injection, schedule: Q01DX005 (ip), vehicle: Klucel (hydroxypropylcellulose) (HPC)) is reported as 112 % of control and 120 % of control, the T/C [16] is reported as 116 % of control and 117 % of control and the T/C (dose: 4.0 mg/kg/injection, schedule: Q01DX005 (ip), vehicle: water) is reported as 102 % of control. The T/C [10] was 108 % of control, the T/C [4] was 108 % of control and 111 % of control and the T/C [11] was 114 % of control and 118 % of control. The T/C (dose: 16.0 mg/kg/injection, schedule: Q01DX005 (ip), vehicle: water) was 105 % of control, the T/C (dose: 32.0 mg/kg/injection, schedule: Q01DX005 (ip), vehicle: saline) was 102 % of control and 114 % of control and the T/C (dose: 32.0 mg/kg/injection, schedule: Q01DX005 (oral), vehicle: saline) was 109 % of control. For the same molecule, the T/C [6] was 107 % of control and 115 % of control, the T/C [9] was 114 % of control and the T/C (dose: 64.0 mg/kg/injection, schedule: Q01DX005 (ip), vehicle: saline) was 123 % of control. For the same molecule, the T/C (dose: 64.0 mg/kg/injection, schedule: Q01DX005 (ip), vehicle: water) was 108 % of control, the T/C (dose: 128.0 mg/kg/injection, schedule: Q01DX005 (ip), vehicle: saline) was 120 % of control and the T/C (dose: 128.0 mg/kg/injection, schedule: Q#A X002 (ip), vehicle: saline) was 103 % of control. For the same molecule, the T/C (dose: 256.0 mg/kg/injection, schedule: Q01DX001 (ip), vehicle: saline) was 107 % of control and 111 % of control and 113 % of control, the T/C (dose: 256.0 mg/kg/injection, schedule: Q01DX001 (oral), vehicle: saline) was 109 % of control and 123 % of control and 124 % of control and the T/C [8] was 112 % of control and 122 % of control. For the same molecule, the T/C (dose: 256.0 mg/kg/injection, schedule: Q01DX005 (ip), vehicle: saline) was 120 % of control and 122 % of control, the T/C (dose: 256.0 mg/kg/injection, schedule: Q#A X002 (ip), vehicle: saline) was 113 % of control and the T/C (dose: 512.0 mg/kg/injection, schedule: Q01DX001 (ip), vehicle: saline) was 109 % of control and 118 % of control. For the same molecule, the T/C (dose: 512.0 mg/kg/injection, schedule: Q01DX001 (oral), vehicle: saline) was 119 % of control and 121 % of control, the T/C (dose: 512.0 mg/kg/injection, schedule: Q#A X002 (ip), vehicle: saline) was 121 % of control and the T/C (dose: 1024.0 mg/kg/injection, schedule: Q01DX001 (ip), vehicle: saline) was 114 % of control and 121 % of control. The T/C (dose: 1024.0 mg/kg/injection, schedule: Q01DX001 (oral), vehicle: saline) was 119 % of control, the T/C (dose: 1024.0 mg/kg/injection, schedule: Q#A X002 (ip), vehicle: saline) was 121 % of control and the T/C (dose: 2048.0 mg/kg/injection, schedule: Q01DX001 (oral), vehicle: saline) was 102 % of control and 121 % of control.

`COc1ccc(CC2C(=O)NC(C)C(=O)N(C)C3C(=O)N(C)C(Cc4ccc(O)c(c4)Oc4ccc(cc4)C3O)C(=O)NC(C)C(=O)NC(C)C(=O)N2C)cc1` (stereo not drawn) was tested, and the T/C [1] was 103 % of control, the T/C (dose: 0.25 mg/kg/injection, schedule: Q01DX005 (ip), vehicle: saline with Tween-80) was 105 % of control and the T/C [2] was 107 % of control. For the same molecule, the T/C (dose: 0.5 mg/kg/injection, schedule: Q01DX005 (ip), vehicle: saline with Tween-80) was 114 % of control, the T/C (dose: 1.0 mg/kg/injection, schedule: Q01DX005 (ip), vehicle: Klucel (hydroxypropylcellulose) (HPC)) was 106 % of control and the T/C (dose: 1.0 mg/kg/injection, schedule: Q01DX005 (ip), vehicle: saline with Tween-80) was 113 % of control. For the same molecule, the T/C (dose: 2.0 mg/kg/injection, schedule: Q01DX005 (ip), vehicle: Klucel (hydroxypropylcellulose) (HPC)) was 96 % of control, the T/C (dose: 2.0 mg/kg/injection, schedule: Q01DX005 (ip), vehicle: saline with Tween-80) was 114 % of control and the T/C [16] was 97 % of control.

For `O=C(N/N=C\c1cc(Br)cc(Br)c1O)N/N=C/c1cc(Br)cc(Br)c1O`, the T/C [12] was 109 % of control, the T/C [9] was 106 % of control and the T/C [13] was 105 % of control. The T/C [14] was 106 % of control and the T/C [15] was 99 % of control.

In the case of `OCC1OC(n2cnc3c(SCc4ccccc4)ncnc32)C(O)C1O` (stereo not drawn), the T/C (dose: 37.5 mg/kg/injection, schedule: Q01DX005 (ip), vehicle: saline with Tween-80) is reported as 97 % of control, the T/C (dose: 75.0 mg/kg/injection, schedule: Q01DX005 (ip), vehicle: saline with Tween-80) is reported as 106 % of control and the T/C (dose: 150.0 mg/kg/injection, schedule: Q01DX005 (ip), vehicle: saline with Tween-80) is reported as 120 % of control.
